What was measured:
[1] = system: Barnyard grass; assay: Weed and crop Petri dish bioassay, radicle length; format: in vivo, Echinochloa crus-galli (L.) Beauv.
Protocol: (§1) m-Tyrosine activity was bioassayed using selected weed and crop species. Growth inhibition as measured by radicle elongation was evaluated in dandelion (Taraxacum officinale Weber in […].), large crabgrass (Digitaria sanguinalis (L.) Scop.), velvetleaf (Abutilon theophrasti Medicus), black medic (Medicago lupulina L.), curly cress (Lepidium sativum L.), bamyardgrass (Echinochloa crus-galli.(L.) Beauv.), lettuce (Lactuca sativa L.), purslane (Portulaca oleracea L.), annual bluegrass (Poa annua L.), birdsfoot trefoil (Lotus corniculatus L.), broadleaf plantain (Plantago major L.), mouseear chickweed (Cerastium vulgatum L.), common chickweed (Stellaria media (L.) Vill.), white clover (Trifolium repens L.), wheat (Triticum aestivum L.), tomato (Lycopersicon esculentum var. esculentum P. Mill.), tobacco (Nicotiana tobacum L.), and sorghum sudangrass hybrid (Sorghum bicolor x Sudanese). Weeds were purchased from HerbiSeeds, England, tomato seeds were purchased from Agway (Ithaca N.Y.), and wheat, sudex and tobacco where donated by Pioneer Seeds (Johnson, Iowa). Seeds were sterilized by a water: ethanol mixture (1:1) for one minute and rinsed three times thoroughly in distilled water. […] At the end of the incubation period, radicle length was measured. […]

[2] = system: Bacillus cereus; assay: Antibacterial disc assay; format: cell-based
Protocol: (§2) m-Tyrosine was evaluated for its effect on several bacteria (Bacillus cereus, Bacillus subtilis, and Escherichia coli) grown on nutrient agar (Difco) plates (9 cm) and a fungal culture (Metarhizium anisopliae ([…].)) grown on potato dextrose agar (Difco) plates. These plates were spread with either 0.5 mL aliquots of a liquid bacterial culture grown for 18 h in nutrient broth or with 0.5 mL of a fungal spore suspension (1×10^6 spores/mL), and were allowed to dry for approximately 30 minutes. […] A disc moistened with 10 μl of water served as negative control, and positive controls consisted of discs spiked with ampicillin and tetracycline (5 μg). The plates were placed in an incubator at 25° C., and visually checked for zones of inhibition for up to four days. All experiments were performed in triplicate.

[3] = system: Bacillus subtilis; assay: Antibacterial disc assay; format: cell-based
Protocol: as §2

[4] = system: Escherichia coli; assay: Antibacterial disc assay; format: cell-based
Protocol: as §2

[5] = system: Black Medic; assay: Weed and crop Petri dish bioassay, radicle length; format: in vivo, Medicago lupulina L.
Protocol: as §1

[6] = system: Sudex; assay: Weed and crop Petri dish bioassay, radicle length; format: in vivo, Sorghum bicolor x Sudanese
Protocol: as §1

[7] = system: lettuce seedlings (Lactuca sativa L.); assay: Soil bioassay, lettuce root growth; format: in vivo; conditions: for IC50: Lactuca sativa; for Root Length of Lettuce Seedlings: m-tyrosine at 160 μM
[8] = system: lettuce seedlings (Lactuca sativa L.); assay: Petri-dish bioassay, radicle elongation in lettuce seedlings; format: in vivo; conditions: for IC50: Lactuca sativa
[9] = system: Metarhizium anisopliae (Metsch.); assay: Fungal disc assay; format: cell-based; conditions: even at concentrations as high as 25 mM
Protocol: as §2

[10] = system: Large Crabgrass; assay: Weed and crop Petri dish bioassay, radicle length; format: in vivo, Digitaria sanguinalis (L.) Scop.
Protocol: (§3) m-Tyrosine activity was bioassayed using selected weed and crop species. Growth inhibition as measured by radicle elongation was evaluated in dandelion (Taraxacum officinale Weber in […].), large crabgrass (Digitaria sanguinalis (L.) Scop.), velvetleaf (Abutilon theophrasti Medicus), black medic (Medicago lupulina L.), curly cress (Lepidium sativum L.), bamyardgrass (Echinochloa crus-galli.(L.) Beauv.), lettuce (Lactuca sativa L.), purslane (Portulaca oleracea L.), annual bluegrass (Poa annua L.), birdsfoot trefoil (Lotus corniculatus L.), broadleaf plantain (Plantago major L.), mouseear chickweed (Cerastium vulgatum L.), common chickweed (Stellaria media (L.) Vill.), white clover (Trifolium repens L.), wheat (Triticum aestivum L.), tomato (Lycopersicon esculentum var. esculentum P. Mill.), tobacco (Nicotiana tobacum L.), and sorghum sudangrass hybrid (Sorghum bicolor x Sudanese). Weeds were purchased from HerbiSeeds, England, tomato seeds were purchased from Agway (Ithaca N.Y.), and wheat, sudex and tobacco where donated by Pioneer Seeds (Johnson, Iowa). Seeds were sterilized by a water: ethanol mixture (1:1) for one minute and rinsed three times thoroughly in distilled water. The simple phytotoxicity bioassay utilized consisted of the evaluation of radicle length of ten sterilized seeds of each weed/crop deposited on a filter paper containing the appropriate m-tyrosine test solution in 4.5 cm Petri dishes. […] A 1000 μL aliquot of the appropriate test solution was added to individual Petri dishes lined with Whatman No. 1 filter paper. Control dishes received 1000 μL of water. After seeds were placed on moistened filter paper, Petri dishes were transferred to a controlled environment with a light regime of 45,33 photon m^-2 s^-1 and maintained at an average temperature of 25° C. for 7 days. At the end of the incubation period, radicle length was measured. Treatments were replicated three times, and the experiment for each plant species tested was repeated three times.

[11] = system: Annual bluegrass; assay: Weed and crop Petri dish bioassay, radicle length; format: in vivo, Poa annua L.
Protocol: as §3

[12] = system: Dandelion; assay: Weed and crop Petri dish bioassay, radicle length; format: in vivo, Taraxacum officinale Weber in Weggers.
Protocol: as §3

[13] = system: Velvetleaf; assay: Weed and crop Petri dish bioassay, radicle length; format: in vivo, Abutilon theophrasti Medicus
Protocol: as §1

[14] = system: onion (Allium cepa L.) root cells; assay: Mitotic index of onion root tip cells; format: cell-based
Protocol: Root tips were stained for light microscopy examination using the Feulgen reaction. Root tips of three mm length were treated with a mixture of absolute ethanol:glacial acetic acid for two hours. The ethanol-glacial acetic acid mixture was removed and the tips were rinsed with distilled water. […] For each m-tyrosine concentration, five individual root tips were removed and macerated in a drop of 45% acetic acid on a slide, and the mitotic stages of the onion root tip cells were observed under a light microscope. […] One thousand cells were recorded per replication, resulting in observation of a total of 3000 cells per treatment. The experiment was repeated three times.

[15] = system: Mouseear chickweed; assay: Weed and crop Petri dish bioassay, radicle length; format: in vivo, Cerastium vulgatum L.
Protocol: as §3

N[C@@H](Cc1cccc(O)c1)C(=O)O [m-tyrosine, 3-hydroxyphenylalanine]
I10 [1]: 80 µM | IC50 ([1]; Echinochloa crus-galli, read-out: I50): 257 µM | growth inhibition [2]: not inhibited | growth inhibition [3]: not inhibited | growth inhibition [4]: not inhibited | I10 [5]: 40 µM | IC50 ([5]; Medicago lupulina, read-out: I50): 84 µM | I10 [6]: 50 µM | IC50 ([6]; Sorghum bicolor, read-out: I50): 151 µM | IC50 ([7]; in soil, read-out: I50, 50% inhibition of root growth of lettuce): ~0.03 mM | IC50 ([7]; soil media, lettuce, read-out: concentration reducing root elongation by 50%): 4 mM | Root Length of Lettuce Seedlings ([7]; ammonium nitrate 0 mM): 2.07 (0.02) cm | Root Length of Lettuce Seedlings ([7]; ammonium nitrate 0.125 mM): 3.56 (0.07) cm | Root Length of Lettuce Seedlings ([7]; ammonium nitrate 0.25 mM): 4.82 (0.1) cm | Root Length of Lettuce Seedlings ([7]; ammonium nitrate 0.5 mM): 4.8 (0.09) cm | Root Length of Lettuce Seedlings ([7]; ammonium nitrate 1.0 mM): 4.8 (0.12) cm | reduction of the inhibition of radicle elongation ([7]; with 1 mM NH4NO3 in comparison to m-tyrosine without soil NH4NO3): approximately 25% | reduction of root elongation of lettuce seedlings ([8]; 20 μM loaded on filter paper): 64% | IC50 ([8]; lettuce seedlings at 72 h, read-out: concentration for 50% reduction of root growth): 17 µM | IC50 ([8]; soil-less assay, read-out: I50, 50% inhibition of root growth of lettuce): ~8 µM | root elongation of pre-germinated lettuce seeds ([8]; solutions added to pre-germinated seeds): strongly inhibited | sensitivity of fungal cultures [9]: not sensitive | I10 [10]: 20 µM | I100 [10]: 320 µM | IC50 ([10]; Digitaria sanguinalis, read-out: I50): 38 µM | I10 [11]: 25 µM | I100 [11]: 320 µM | IC50 ([11]; Poa annua, read-out: I50): 47 µM | I10 [12]: 10 µM | I100 [12]: 160 µM | IC50 ([12]; Taraxacum officinale, read-out: I50): 39 µM | I10 [13]: 40 µM | IC50 ([13]; Abutilon theophrasti, read-out: I50): 168 µM | mitotic indices in all phases of mitosis ([14]; 20 μM): significantly reduced | Anaphase, total cells observed ([14]; m-tyrosine 10 (μM)): 1.6% | Metaphase, total cells observed ([14]; m-tyrosine 10 (μM)): 1.4% | Prophase, total cells observed ([14]; m-tyrosine 10 (μM)): 2.2% | Telophase, total cells observed ([14]; m-tyrosine 10 (μM)): 2% | Anaphase, total cells observed ([14]; m-tyrosine 20 (μM)): 1.1% | Metaphase, total cells observed ([14]; m-tyrosine 20 (μM)): 1% | Prophase, total cells observed ([14]; m-tyrosine 20 (μM)): 2% | Telophase, total cells observed ([14]; m-tyrosine 20 (μM)): 1% | Anaphase, total cells observed ([14]; m-tyrosine 40 (μM)): 0.6% | Metaphase, total cells observed ([14]; m-tyrosine 40 (μM)): 0.4% | Prophase, total cells observed ([14]; m-tyrosine 40 (μM)): 1% | Telophase, total cells observed ([14]; m-tyrosine 40 (μM)): 0.2% | Anaphase, total cells observed ([14]; m-tyrosine 80 (μM)): 0.5% | Metaphase, total cells observed ([14]; m-tyrosine 80 (μM)): 0% | Prophase, total cells observed ([14]; m-tyrosine 80 (μM)): 0.5% | Telophase, total cells observed ([14]; m-tyrosine 80 (μM)): 0.2% | Anaphase, total cells observed ([14]; m-tyrosine 160 (μM)): 0% | Metaphase, total cells observed ([14]; m-tyrosine 160 (μM)): 0% | Prophase, total cells observed ([14]; m-tyrosine 160 (μM)): 0.2% | Telophase, total cells observed ([14]; m-tyrosine 160 (μM)): 0.3% | I10 [15]: 6 µM | I100 [15]: 47 µM | IC50 ([15]; Cerastium, read-out: I50): 9 µM
